Assay results taken from patent US8367658B2, “Pyrazin-2-yl-pyridin-2-yl-amine and pyrazin-2-yl-pyrimidin-4-yl-amine compounds and their use” (Cancer Research Technology Limited, priority 2007, dated 2013).
pIC50: −log10 of the molar value. “And” between values parts separate entries of the source, which are not always exact repeats. Identical values can stand only once.

The compounds below were run against T1, CHK1 (Homo sapiens, UniProt O14757) (assay: CHK1 kinase function inhibition assay (DELFIA, phosphorylation of a CDC25C peptide)). Details: CHK1 1 nM, ATP 30 μM, 30 minutes at room temperature.
T1 sequence (O14757 1-476): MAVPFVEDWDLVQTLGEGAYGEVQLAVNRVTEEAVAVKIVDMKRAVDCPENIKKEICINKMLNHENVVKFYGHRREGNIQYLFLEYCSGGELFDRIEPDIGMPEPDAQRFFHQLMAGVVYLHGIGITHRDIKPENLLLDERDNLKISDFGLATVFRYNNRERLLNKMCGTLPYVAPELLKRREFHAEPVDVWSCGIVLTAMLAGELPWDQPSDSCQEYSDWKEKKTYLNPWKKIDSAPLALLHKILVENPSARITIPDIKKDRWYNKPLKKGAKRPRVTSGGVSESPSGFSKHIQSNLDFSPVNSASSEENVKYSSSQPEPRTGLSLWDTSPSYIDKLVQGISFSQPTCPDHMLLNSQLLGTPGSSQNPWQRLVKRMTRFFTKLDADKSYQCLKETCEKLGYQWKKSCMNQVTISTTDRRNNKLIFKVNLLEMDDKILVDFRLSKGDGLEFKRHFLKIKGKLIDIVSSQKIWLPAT
Format: biochemical
In short: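 Phosphorylation of a CDC25C peptide detected by DELFIA with a phospho-specific antibody. Kinase reaction ran 30 min at room temperature, was stopped with EDTA buffer, then captured on neutravidin-coated plates for 1 h before time-resolved fluorescence read-out with enhancement solution.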

Row | Structure (SMILES) | pIC50
1 | N#Cc1cnc(Nc2cc(NCC3CCCNC3)c(-n3ccc(C(=O)NCCO)c3)cn2)cn1 (stereo not shown) [Compound Y-066, 1-(6-(5-Cyanopyrazin-2-ylamino)-4-(piperidin-3-ylmethylamino)pyridin-3-yl)-N-(2-hydroxyethyl)-1H-pyrrole-3-carboxamide] | 6.00 to 7.00
2 | COC(=O)c1cnc(Nc2cnc(OC)cn2)cc1NCC1CNCCO1 (stereo not shown) [Compound Y-106, Methyl 6-(5-methoxypyrazin-2-ylamino)-4-(morpholin-2-ylmethylamino)nicotinate] | 6.00 to 7.00
3 | CS(=O)(=O)c1cccc(-c2cnc(Nc3cnc(C#N)cn3)cc2NCC2CCNCC2)c1 [Compound Y-132, 5-(5-(3-(Methylsulfonyl)phenyl)-4-(piperidin-4-ylmethylamino)pyridin-2-ylamino)pyrazine-2-carbonitrile] | 6.00 to 7.00
4 | CN1CCC(N(C)c2cc(Nc3cnc(C#N)cn3)ncc2-c2ccccc2)CC1 [Compound Y-113, 5-(4-(methyl(1-methylpiperidin-4-yl)amino)-5-phenylpyridin-2-ylamino)pyrazine-2-carbonitrile] | 6.00 to 7.00
5 | CN(C)CC(=O)Nc1cnc(Nc2cnc(C#N)cn2)cc1NC1CCNCC1 [Compound Y-016, N-(6-(5-Cyanopyrazin-2-ylamino)-4-(piperidin-4-ylamino)pyridin-3-yl)-2-(dimethylamino)acetamide] | ≥ 6.00 and 6.00 to 7.00
6 | Cc1ccccc1-c1cnc(Nc2cnc(C#N)cn2)cc1NC1CCN(C)CC1 [Compound Y-121, 5-(4-(1-Methylpiperidin-4-ylamino)-5-o-tolylpyridin-2-ylamino)pyrazine-2-carbonitrile] | 6.00 to 7.00
7 | CN1CCC(N(C)c2cc(Nc3cnc(C#N)cn3)ncc2Cl)CC1 [Compound Y-109, 5-(5-Chloro-4-(methyl(1-methylpiperidin-4-yl)amino)pyridin-2-ylamino)pyrazine-2-carbonitrile] | 6.00 to 7.00
8 | COc1ccc(CC(=O)Nc2cnc(Nc3cnc(C#N)cn3)cc2NCC2CCNCC2)cc1 [Compound Y-013, N-(6-(5-Cyanopyrazin-2-ylamino)-4-(piperidin-4-ylmethylamino)pyridin-3-yl)-2-(4-methoxyphenyl)acetamide] | 5.00 to 6.00
9 | COC(=O)c1cnc(Nc2cnc(OC)cn2)cc1NC1CC2CCC(C1)N2C (stereo not shown) [Compound Y-037, Methyl 6-(5-methoxypyrazin-2-ylamino)-4-(8-methyl-8-azabicyclo[3.2.1]octan-3-ylamino)nicotinate] | ≥ 7.00
10 | CN(C)CC(=O)Nc1cnc(Nc2cnc(C#N)cn2)cc1NCC1CCNCC1 [Compound Y-010, N-(6-(5-Cyanopyrazin-2-ylamino)-4-(piperidin-4-ylmethylamino)pyridin-3-yl)-2-(dimethylamino)acetamide] | ≥ 6.00 and 6.00 to 7.00
11 | COC(=O)c1cnc(Nc2cnc(C#N)cn2)cc1NC1C[C@H]2CC[C@@H](C1)N2Cc1ccccc1 (stereo partly drawn) [Compound Y-029, Methyl 4-((1R,3s,5S)-8-benzyl-8-azabicyclo[3.2.1]octan-3-ylamino)-6-(5-cyanopyrazin-2-ylamino)nicotinate] | ≥ 7.00
12 | NCCCCNc1cc(Nc2cnccn2)ncn1 [Compound Z-006, N-(4-Aminobutyl)-N′-pyrazin-2-ylpyrimidine-4,6-diamine] | 5.00 to 6.00
13 | N#Cc1cnc(Nc2cc(NC3CCNCC3)c(N)cn2)cn1 [Compound Y-005, 5-(5-Amino-4-(piperidin-4-ylamino)pyridin-2-ylamino)pyrazine-2-carbonitrile] | ≥ 6.00 and 6.00 to 7.00
14 | CN1CCC(Nc2cc(Nc3cnc(C#N)cn3)ncc2-c2ccsc2)CC1 [Compound Y-112, 5-(4-(1-methylpiperidin-4-ylamino)-5-(thiophen-3-yl)pyridin-2-ylamino)pyrazine-2-carbonitrile] | ≥ 7.00
15 | N#Cc1cnc(Nc2cc(NC3CCNCC3)ncn2)cn1 [Compound Z-012, 5-(6-(Piperidin-4-ylamino)pyrimidin-4-ylamino)pyrazine-2-carbonitrile] | ≥ 6.00 and 6.00 to 7.00
16 | N#Cc1cnc(Nc2cc(NC[C@@H]3CCCNC3)c(N)cn2)cn1 [Compound Y-048, (R)-5-(5-Amino-4-(piperidin-3-ylmethylamino)pyridin-2-ylamino)pyrazine-2-carbonitrile] | ≥ 7.00
17 | COc1ccc(-c2cnc(Nc3cnc(C#N)cn3)cc2NCC2(F)CCNCC2)cc1 [Compound Y-136, 5-(4-((4-Fluoropiperidin-4-yl)methylamino)-5-(4-methoxyphenyl)pyridin-2-ylamino)pyrazine-2-carbonitrile] | ≥ 7.00
18 | COCCN(C)C(=O)c1cnc(Nc2cnc(C#N)cn2)cc1NCC1CCNCC1 [Compound Y-091, 6-(5-Cyanopyrazin-2-ylamino)-N-(2-methoxyethyl)-N-methyl-4-(piperidin-4-ylmethylamino)nicotinamide] | 6.00 to 7.00
19 | CN1CCC(Nc2cc(Nc3cnc(C#N)cn3)ncc2[N+](=O)[O-])CC1 [Compound Y-040, 5-(4-(1-Methylpiperidin-4-ylamino)-5-nitropyridin-2-ylamino)pyrazine-2-carbonitrile] | ≥ 7.00
20 | N#Cc1cnc(Nc2cc(NCC3CCCNC3)c(-n3ccc(C(=O)O)c3)cn2)cn1 (stereo not shown) [Compound Y-065, 1-(6-(5-Cyanopyrazin-2-ylamino)-4-(piperidin-3-ylmethylamino)pyridin-3-yl)-1H-pyrrole-3-carboxylic acid] | 6.00 to 7.00

More lines, now with the values ahead:

Row | pIC50 | Structure (SMILES)
21 | ≥ 7.00 | COCCNC(=O)c1cnc(Nc2cnc(C#N)cn2)cc1NCC1CCNCC1 [Compound Y-084, 6-(5-Cyanopyrazin-2-ylamino)-N-(2-methoxyethyl)-4-(piperidin-4-ylmethylamino)nicotinamide]
22 | ≥ 7.00 | CN1CCC(Nc2cc(Nc3cnc(C#N)cn3)ncc2C(=O)Nc2ccccc2)CC1 [Compound Y-103, 6-(5-Cyanopyrazin-2-ylamino)-4-(1-methylpiperidin-4-ylamino)-N-phenylnicotinamide]
23 | ≥ 7.00 | COC(=O)c1cnc(Nc2cnc(C#N)cn2)cc1N(C)CC1CCNCC1 [Compound Y-021, Methyl 6-(5-cyanopyrazin-2-ylamino)-4-(methyl(piperidin-4-ylmethyl)amino)nicotinate]
24 | ≥ 7.00 | COC(=O)c1cnc(Nc2cnc(C)cn2)cc1NC1CCN(C)CC1 [Compound Y-105, methyl 4-(1-methylpiperidin-4-ylamino)-6-(5-methylpyrazin-2-ylamino)nicotinate]
25 | ≥ 7.00 | CN1CCC(Nc2cc(Nc3cnc(C#N)cn3)ncc2Cl)CC1 [Compound Y-108, 5-(5-Chloro-4-(1-methylpiperidin-4-ylamino)pyridin-2-ylamino)pyrazine-2-carbonitrile]
26 | ≥ 7.00 | N#Cc1cnc(Nc2cc(NCC3CCNCC3)c(C(=O)Nc3ccc(OCCN4CCOCC4)cc3)cn2)cn1 [Compound Y-098, 6-(5-Cyanopyrazin-2-ylamino)-N-(4-(2-morpholinoethoxy)phenyl)-4-(piperidin-4-ylmethylamino)nicotinamide]
27 | ≥ 7.00 | N#Cc1cnc(Nc2cc(NCC3CCCNC3)c(-n3ccc(C(=O)NCCCO)c3)cn2)cn1 (stereo not shown) [Compound Y-067, 1-(6-(5-Cyanopyrazin-2-ylamino)-4-(piperidin-3-ylmethylamino)pyridin-3-yl)-N-(3-hydroxypropyl)-1H-pyrrole-3-carboxamide]
28 | ≥ 7.00 | N#Cc1cnc(Nc2cc(NCC3CCCNC3)c(-n3cccc3)cn2)cn1 (stereo not shown) [Compound Y-056, 5-(4-(Piperidin-3-ylmethylamino)-5-(1H-pyrrol-1-yl)pyridin-2-ylamino)pyrazine-2-carbonitrile]
